According to patent publication US20050074879A1, “Antisense oligonucleotide modulation of STAT3 expression” (priority 2000, published 2005):
Oligonucleotides are written 5' to 3', each unit as a sugar letter and its base; * is a phosphorothioate linkage, no mark a phosphodiester; rarer units and linkages stand in square brackets, end groups in braces. Plain capitals give the bases only. e = 2'-O-(2-methoxyethyl) (MOE); [5mC] = 5-methylcytosine; d = 2'-deoxy (DNA)

Assays:
[1] = test system: IgM secretion by BCL1 cells; experiment: BCL1 IgM secretion, ELISA; type: cell-based, mouse
Protocol: The effect of ISIS 17152 (SEQ ID. NO. 99) on IgM secretion levels was determined. STAT3 has been implicated in regulation of IgM expression (Faris, M., et al., Immunology, 1997, 90, 350-357). BCL1 cells were grown, treated and processed as described in Example 2.
1×10^6 BCL1 cells were incubated in 12-well plates in 2 mL complete RPMI following electroporation. Supernatant was replaced at 24 hour post electroporation with fresh medium. 48 hours later, supernatants were harvested, centrifuged to remove cells, and assayed for IgM content using the OPT-EIA™ ELISA kit (Pharmingen, San Diego, Calif.) and capture and detecting antibodies for mouse IgM (Southern Biotechnology, Birmingham, Ala.).

[2] = test system: Mouse STAT3 protein; experiment: STAT3 protein levels in BCL1 cells by Western blot, dose response; type: cell-based
Protocol: ISIS 17152 (SEQ ID. NO. 99) was chosen for further study. The effect of this oligonucleotide on protein levels was determined by Western blot. ISIS 23177 (SEQ ID NO. 106), a 3 base mismatch, was used as a control. BCL1 cells were grown, treated and processed as described in Example 2.
Nuclear extracts from primary B cells and B lymphoma cell lines were prepared as described in Karras, J. G., et al. (J. Exp. Med., 1997, 185, 1035-1042).
Western blotting was performed as described in Karras, J. G. et al. (J. Immunol., 1996, 157, 2299). STAT1 and STAT3 antibodies were obtained from UBI (Lake Placid, N.Y.).

[3] = test system: BCL1 cells; experiment: BCL1 cell proliferation, [3H]-thymidine incorporation; type: cell-based, mouse; conditions: BCL1 cells; for % Cell Proliferation: 48 hours after electroporation
Protocol: The effect of ISIS 17152 (SEQ ID NO. 99) on BCL1 proliferation was determined. BCL1 cells contain constitutively active STAT3 which is thought to be responsible for their proliferation. BCL1 cells were grown, treated and processed as described in Example 2.
1×10^5 BCL1 cells were incubated in 96-well plates in […] complete RPMI following electroporation. Cultures were pulsed with […] of [^3H]-thymidine for the last 8 hours of culture and cells were harvested and analyzed for thymidine incorporation as described in Francis, D. A. et al. (Int. Immunol., 1995, 7, 151-161) 48 hours after electroporation.

[4] = test system: MIP1a mRNA; experiment: Induction of chemokines in BCL1 cells, RNase protection assay: MIP1a; type: cell-based, mouse; conditions: CpG oligonucleotide induced
Protocol: (§1) The effect of ISIS 17152 (SEQ ID. NO. 99) on chemokine levels was determined. BCL1 cells were grown, treated and processed as described in Example 2. Chemokine gene expression was induced in BCL1 cells by addition of […] of a CpG-containing oligonucleotide to the media 16 hours following antisense oligonucleotide electroporation. CpG-containing oligonucleotides are immune-stimulatory (Krieg, A. M., et al., Nature, 1995, 374, 546-549). The levels of chemokines were measured eight hours later using RNase protection assay as described in Example 2 with a mouse chemokine template set, Mck-5 (Pharmingen, San Diego, Calif.).

[5] = test system: MIP1b mRNA; experiment: Induction of chemokines in BCL1 cells, RNase protection assay: MIP1b; type: cell-based, mouse; conditions: CpG oligonucleotide induced
Protocol: as §1

[6] = test system: RANTES mRNA; experiment: Induction of chemokines in BCL1 cells, RNase protection assay: RANTES; type: cell-based, mouse; conditions: CpG oligonucleotide induced
Protocol: as §1

[7] = test system: Human STAT3 mRNA; experiment: STAT3 mRNA in A549 cells treated with dsRNAs (duplex antisense compounds), real-time PCR PPS 199 (Table 22); type: cell-based; conditions: treated 4 hours, harvested 16 hours later, − decrease, + increase vs untreated control
Protocol: When cells reached 80% confluency, they are treated with duplexed antisense compounds of the invention. For cells grown in 96-well plates, wells are washed once with […] OPTI-MEM-1 reduced-serum medium (Gibco BRL) and then treated with 130 μL of OPTI-MEM-1 containing 12 μg/mL LIPOFECTIN (Gibco BRL) and the desired duplex antisense compound at a final concentration of 200 nM (a ratio of 6 μg/mL LIPOFECTIN per 100 nM duplex antisense compound). After 5 hours of treatment, the medium is replaced with fresh medium. Cells are harvested 16 hours after treatment, at which time RNA is isolated and target reduction measured by RT-PCR.
The compounds in Table 21 were tested for their effects on human STAT3 expression in A549 cells. ISIS 330249 targets the same site as the antisense oligonucleotid ISIS 106734 (SEQ ID NO: 45) and ISIS 330247 targets the same site as the antisense oligonucleotide ISIS 113176 (SEQ ID NO: 115); thus, ISIS 106734 and ISIS 113176 were also tested. A549 cells were treated with oligonucleotide mixed with LIPOFECTIN (Invitrogen Corporation, Carlsbad, Calif.) as described herein. The control oligonucleotide used was ISIS 129698 ([…], SEQ ID NO: 402). Cells were treated with oligonucleotide for 4 hours and harvested an additional 16 hours later. Untreated cells served as a control.
Human STAT3 mRNA expression levels were quantitated by real-time PCR using primer probe set PPS 199 and gene target quantities were normalized using Ribogreen as described in other examples herein. A “−” or “+” designation indicates a decrease or increase of STAT 3 mRNA expression, respectively, relative to untreated control cells. Where present, “N.D.” indicates not determined.

[8] = test system: Human STAT3 mRNA; experiment: Human STAT3 mRNA dose response in A549 cells, real-time PCR with PPS 199 (Table 20); type: cell-based; conditions: 16 hours, LIPOFECTIN, − decrease, + increase relative to untreated control cells
Protocol: An additional dose-response experiment was preformed in A549 cells. A549 cells were treated with 18.75, 37.5, 75, or 150 nM of oligonucleotide mixed with 3 ug/mL LIPOFECTIN per 100 nM oligonucleotide as described by other examples herein. Control oligonucleotides used were ISIS 129686 (SEQ ID NO: 394) and ISIS 129690 (SEQ ID NO: 393). Untreated cells served as controls. Following 16 hours of treatment, RNA was prepared from cells for subsequent real-time PCR analysis.
Human STAT3 mRNA expression levels were quantitated by real-time PCR using primer probe set PPS 199 and gene target quantities were normalized using Ribogreen as described in other examples herein. A “−” or “+” designation in the dose response results indicates a decrease or increase of STAT 3 mRNA expression, respectively, relative to untreated control cells.

[9] = test system: Mouse B16 melanoma cells; experiment: Cell number of B16 melanoma cells after antisense treatment; type: cell-based; conditions: 24 hours after transfection
Protocol: Mouse B16 melanoma cells were grown in RPMI 1640 (Life Technologies, Inc., Grand Island, N.Y.) medium supplemented with 10% fetal bovine serum, 2 mM L-glutamine, 1 mM sodium pyruvate, 1% MEM nonessential amino acids and 100 IU/ml penicillin/streptomycin.
Cells were treated with ISIS 17152, targeted to mouse STAT3, or the 3-base mismatch control, ISIS 28084 ([…]; SEQ ID NO: 151). Cells were transfected with oligonucleotide using LipofectAMINE PLUSJ reagent (GibcoBRL). Oligonucleotide was pre-complexed with LipofectAMINE PLUSJ by adding the oligonucleotide to 100 μl serum-free RPMI 1640 medium, then 6 μl LipofectAMINE PLUSJ reagent was added, the sample was mixed well and incubated for 15 minutes at room temperature. An additional 4 μl of LipofectAMINE PLUSJ reagent was diluted to 100 μl in serum-free RPMI. This diluted LipofectAMINE PLUSJ was mixed with the pre-complexed oligonucleotide/LipofectAMINE PLUSJ mixture and incubated for 15 minutes at room temperature. 800 μl of serum-free RPMI 1640 was added, and the resulting oligonucleotide-LipofectAMINE PLUSJ-medium mixture (approximately 1 ml) was added to cells in a 6-well plate. After 3 hours incubation, 1 ml of RPMI 1640 supplemened with 20% fetal bovine serum was added. Oligonucleotide concentrations were 200 nM or 300 nM.
24 hours after transfection, cells were counted to determine the effect of antisense treatment on cell death. Cells were harvested at 24 hours post transfection for western blot analysis and at 48 hours post-transfection for Annexin-V staining for apoptosis.

## 23177 (antisense eA*eA*eA*eA*eA*dG*dT*dC*dC*dG*dC*dT*dG*dA*dT*eT*eG*e[5mC]*e[5mC]*e[5mC]) [compound 23177]
[1]; dose 5 nM
  % IgM Expression: 110.0%
[1]; dose 15 nM
  % IgM Expression: 80.8%
  % IgM Inhibition: 19.2%
[2]; dose 10 nM
  % protein Expression: 75.1%
  % protein Inhibition: 24.9%
[2]; dose 15 nM
  % protein Expression: 67.6%
  % protein Inhibition: 32.4%
[2]; dose 20 nM
  % protein Expression: 62.6%
  % protein Inhibition: 37.4%
[3]; dose 10 nM
  % Cell Proliferation: 117.0%
[3]; dose 15 nM
  % Cell Inhibition: 0.3%
  % Cell Proliferation: 99.7%
[3]; dose 20 nM
  % Cell Proliferation: 107.0%

## 23178 (antisense eA*eA*eA*eA*eA*dC*dT*dC*dC*dG*dC*dT*dG*dA*dA*eT*eG*e[5mC]*e[5mC]*e[5mC]) [compound 23178]
[4]; dose 5 nM
  % MIP1a mRNA: 123%
[4]; dose 10 nM
  % MIP1a mRNA: 116%
[4]; dose 20 nM
  % MIP1a mRNA: 106%
[5]; dose 5 nM
  % MIP1b mRNA: 96.5%
[5]; dose 10 nM
  % MIP1b mRNA: 87.1%
[5]; dose 20 nM
  % MIP1b mRNA: 73.3%
[6]; dose 5 nM, control 100%
  % RANTES mRNA: 96%
[6]; dose 10 nM
  % RANTES mRNA: 70.2%
[6]; dose 20 nM
  % RANTES mRNA: 56%

## 106734 (CATTCTTGGGATTGTTGGTC; all C 5-methyl, all phosphorothioate, sugars by position not given here; further chemistry not fully specified) [compound 106734]
[7]; 12.5 nM oligonucleotide
  Percent change in STAT3 mRNA expression in A549 cells by duplex antisense compounds: −5%
[7]; 25 nM oligonucleotide
  Percent change in STAT3 mRNA expression in A549 cells by duplex antisense compounds: −5%
[7]; 50 nM oligonucleotide
  Percent change in STAT3 mRNA expression in A549 cells by duplex antisense compounds: −40%
[7]; 100 nM oligonucleotide
  Percent change in STAT3 mRNA expression in A549 cells by duplex antisense compounds: −56%
[7]; 200 nM oligonucleotide
  Percent change in STAT3 mRNA expression in A549 cells by duplex antisense compounds: −67%
[7]; 400 nM oligonucleotide
  Percent change in STAT3 mRNA expression in A549 cells by duplex antisense compounds: −77%
[8]; 18.75 nM oligonucleotide
  Percent change of STAT3 expression in A549 cells using PPS 199: −2%
[8]; 37.5 nM oligonucleotide
  Percent change of STAT3 expression in A549 cells using PPS 199: −16%
[8]; 75 nM oligonucleotide
  Percent change of STAT3 expression in A549 cells using PPS 199: −56%
[8]; 150 nM oligonucleotide
  Percent change of STAT3 expression in A549 cells using PPS 199: −73%

## 129698 (antisense TTTGATCGAGGTTAGCCGTG; listed as DNA, chemistry not given here) [compound 129698]
[7]; 50 nM oligonucleotide
  Percent change in STAT3 mRNA expression in A549 cells by duplex antisense compounds: +41%
[7]; 100 nM oligonucleotide
  Percent change in STAT3 mRNA expression in A549 cells by duplex antisense compounds: +42%
[7]; 200 nM oligonucleotide
  Percent change in STAT3 mRNA expression in A549 cells by duplex antisense compounds: +1%
[7]; 400 nM oligonucleotide
  Percent change in STAT3 mRNA expression in A549 cells by duplex antisense compounds: +22%

## AAAAAGAGGCCTGATTGCCC (listed as DNA, chemistry not given here) [ISIS 28084, reference compound]
[9]; 200 nM, Expt 1
  cell number: 10.2 × 10^5
[9]; 200 nM, Expt 2
  cell number: 5.0 × 10^5
[9]; 200 nM, Expt 3
  cell number: 3.5 × 10^5
[9]; 300 nM, Expt 2
  cell number: 9.1 × 10^5
[9]; 300 nM, Expt 3
  cell number: 3.3 × 10^5
